# PubChem BioAssay (NCI)
#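 Assay format: 96-well plates, 48-hour exposure. GI50 marks 50% less growth. TGI: concentration producing complete growth inhibition.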
# Columns and labels:
# Test in all cases: DTP human tumour cell line panel, 48 h
# [1] = tested on: CCRF-CEM leukemia
# [2] = tested on: HCT-116 colon
# [3] = tested on: HL-60(TB) leukemia
# [4] = tested on: NCI-H522 lung
# [5] = tested on: OVCAR-5 ovarian
# [6] = tested on: OVCAR-8 ovarian
# [7] = tested on: SNB-19 CNS
# [8] = tested on: U251 CNS
# [9] = tested on: RPMI-8226 leukemia
# [10] = tested on: MDA-MB-435
Structure (SMILES),TGI [1],TGI [2],TGI [3],TGI [4],TGI [5],TGI [6],TGI [7],TGI [8],GI50 [2],GI50 [4],GI50 [5],GI50 [6],GI50 [7],GI50 [8],GI50 [1],GI50 [3],GI50 [9],TGI [9],GI50 [10],TGI [10]
NCP(=O)(O)OCC(=O)O,> 100 µM,> 100 µM,> 100 µM,> 100 µM,> 100 µM,> 100 µM,> 100 µM,> 100 µM,,,,,,,,,,,,
O=C1c2ccn(CCCCN3CCC(O)CC3)c2C(=O)c2c1c(O)c1ccccc1c2O,,,,14.4 µM,> 66.8 µM,75.3 µM,> 86.9 µM,43.4 µM,1.84 µM,2.86 µM,33.4 µM,25.6 µM,> 52.2 µM,15.4 µM,,,,,,
Cn1ccnc1C[N-]Cc1nccn1C.O=[N+]([O-])[O-].O=[N+]([O-])[O-].[Cu+2],> 100 µM,> 100 µM,> 100 µM,> 100 µM,,> 100 µM,> 100 µM,> 100 µM,> 100 µM,> 100 µM,,> 100 µM,> 100 µM,> 100 µM,> 100 µM,> 100 µM,> 100 µM,> 100 µM,,
CC(=O)CC(=O)/C=C/c1cccs1,> 100 µM,> 100 µM,72.5 µM,> 100 µM,> 100 µM,> 100 µM,> 100 µM,> 100 µM,,,,,,,,,,> 100 µM,,
COC(=O)C1CC(C(=O)OC)c2nc3cc(C)c(C)cc3nc21 (stereo not drawn),> 100 µM,,> 100 µM,> 100 µM,> 100 µM,> 100 µM,> 100 µM,> 100 µM,,,,,,,,,,> 100 µM,,
CN(C)CCNc1nc(-c2cccs2)cc(-c2cccs2)n1,24.1 µM,23.4 µM,,,23.9 µM,21.7 µM,,24.4 µM,,,,,,,,,,,,
CCc1nc(-n2c(-c3ccccc3)nc3ccccc3c2=O)nc(N)c1-c1ccc(Cl)cc1,> 100 µM,> 100 µM,,> 100 µM,> 100 µM,> 100 µM,> 100 µM,> 100 µM,3.28 µM,52.2 µM,2.86 µM,7.96 µM,6.46 µM,9.19 µM,9.94 µM,,50.3 µM,> 100 µM,3.48 µM,> 100 µM
COc1ccc2nc3cccc(C(=O)NCCN(C)C)c3nc2c1,,2.6 µM,4.89 µM,> 100 µM,6.17 µM,,19.6 µM,11.3 µM,,,,,,,,,,27.6 µM,,
C1C[OH+]CC[OH+]CC[OH+]CC[OH+]CC[OH+]CC[OH+]1.[Cl-].[Nb+5],,> 100 µM,> 100 µM,> 100 µM,,> 100 µM,> 100 µM,> 100 µM,> 100 µM,> 100 µM,,> 100 µM,> 100 µM,> 100 µM,,> 100 µM,> 100 µM,> 100 µM,,
Cc1ccc(NC(=O)CCC(=O)C(C#N)c2ccccc2)cc1C (stereo not drawn),> 100 µM,> 100 µM,> 100 µM,> 100 µM,> 100 µM,> 100 µM,> 100 µM,> 100 µM,,,,,,,,,,> 100 µM,,
CC(=O)O[C@H]1C=CC23OC(=O)[C@]1(C)[C@H]2[C@H](C(=O)O)C12CC(=O)[C@@](CO)(CC[C@H]13)C2,> 100 µM,> 100 µM,> 100 µM,> 100 µM,> 100 µM,> 100 µM,> 100 µM,> 100 µM,,,,,,,,,,> 100 µM,,
NC(=O)N/N=C(/c1nc2ccc([N+](=O)[O-])cc2[nH]c1=O)C(O)c1ccco1 (stereo not drawn),> 100 µM,> 100 µM,> 100 µM,> 100 µM,> 100 µM,> 100 µM,> 100 µM,> 100 µM,,,,,,,,,,> 100 µM,,
COc1cc([C@@H]2c3cc4c(cc3C[C@H]3COC(=O)[C@@H]32)OCO4)cc2c1OCO2,97.7 µM,,,> 100 µM,> 100 µM,,,> 100 µM,,,,,,,,,,> 100 µM,,< 0.01 µM
CCOC(=O)/N=c1/nc(N(C)C)ss1,> 100 µM,> 100 µM,> 100 µM,> 100 µM,> 100 µM,> 100 µM,> 100 µM,> 100 µM,,,,,,,,,,> 100 µM,,
NS(=O)(=O)c1ccc(NC(=O)COC(=O)c2cccc3c(=O)c4ccccc4[nH]c23)cc1,> 89.5 µM,> 74.9 µM,> 100 µM,43.5 µM,> 90 µM,65.8 µM,45.2 µM,28.1 µM,,,,,,,,,,> 100 µM,,
COc1ccc2c(c1)OCCC1=C2SCC2(C)CCN=C12 (stereo not drawn),> 100 µM,> 100 µM,> 100 µM,> 100 µM,,> 100 µM,> 100 µM,> 100 µM,,,,,,,,,,> 100 µM,,

Structure (SMILES),TGI [1],TGI [2],TGI [3],TGI [4],TGI [5],TGI [6],TGI [7],TGI [8],GI50 [2],GI50 [4],GI50 [5],GI50 [6],GI50 [7],GI50 [8],GI50 [1],GI50 [3],GI50 [9],TGI [9],GI50 [10],TGI [10]
C#Cc1cc2c(N)c(C(=O)c3cc(OC)c(OC)c(OC)c3)[nH]c2cc1OC,> 100 µM,> 100 µM,,,> 100 µM,> 100 µM,> 100 µM,> 100 µM,0.431 µM,,3.79 µM,2.48 µM,0.73 µM,0.691 µM,0.63 µM,,1.84 µM,20 µM,,
CC(=O)n1ccc2c(Cl)ncnc21,> 100 µM,> 100 µM,> 100 µM,> 54.4 µM,,> 100 µM,> 100 µM,> 100 µM,,,,,,,,,,> 100 µM,,
COC(=O)C1C2CC3C(OC(=O)C31)C2OC(=O)[C@](OC)(c1ccccc1)C(F)(F)F (stereo partly drawn),> 100 µM,> 100 µM,> 100 µM,> 100 µM,> 100 µM,> 100 µM,> 100 µM,> 100 µM,,,,,,,,,,> 100 µM,,
CN(C)CC1CCCC/C1=N/OC(=O)c1ccc(Cl)c(Cl)c1 (stereo not drawn),> 100 µM,> 100 µM,> 100 µM,> 100 µM,> 100 µM,> 100 µM,,> 100 µM,,,,,,,,,,> 100 µM,,
N#C/C(=C\c1ccccc1Br)C(=O)c1ccccc1,38.6 µM,> 66.8 µM,15.9 µM,> 100 µM,99.1 µM,> 38.6 µM,> 87.3 µM,> 71.4 µM,,,,,,,,,,51.6 µM,,
COC(=O)Cc1nc2ccccc2o1,> 100 µM,> 100 µM,41.4 µM,> 100 µM,> 100 µM,> 100 µM,> 100 µM,> 100 µM,,,,,,,,,,> 100 µM,,
COc1ccc(C(=O)O/N=C2/CCC/C2=C\c2ccccc2)cc1,> 100 µM,> 100 µM,> 100 µM,> 100 µM,> 100 µM,> 100 µM,> 100 µM,> 100 µM,,,,,,,,,,> 100 µM,,
C[n+]1c(N)n(C(=O)OCc2ccccc2)c(=O)c2c1ncn2C(=O)OCc1ccccc1,> 100 µM,> 100 µM,> 100 µM,> 100 µM,> 100 µM,> 100 µM,> 100 µM,> 100 µM,,,,,,,,,,> 100 µM,,
C[N+](C)(C)CC1CCCC/C1=N\O (stereo not drawn),> 100 µM,> 100 µM,> 100 µM,> 100 µM,> 100 µM,> 100 µM,> 100 µM,> 100 µM,,,,,,,,,,> 100 µM,,
CC1=C(C(=O)Nc2ccccc2)C(c2ccc(C(C)C)cc2)C(C(=O)Nc2ccccc2)=C(C)N1,75.2 µM,27 µM,30.7 µM,45.4 µM,38.5 µM,> 66.3 µM,> 100 µM,45.1 µM,,,,,,,,,,29.8 µM,,
Nc1nc(N)c(-c2ccccc2)c(CCC(=O)Nc2ccc(Cl)cc2)n1,> 100 µM,> 100 µM,> 100 µM,> 100 µM,> 100 µM,> 100 µM,> 100 µM,> 100 µM,,,,,,,,,,> 100 µM,,
CCOC(=S)SCN1C(=O)c2ccccc2S1(=O)=O,39.4 µM,26.5 µM,,27.8 µM,29.9 µM,> 100 µM,88.8 µM,37.3 µM,13.6 µM,11.3 µM,14.5 µM,20.8 µM,28.7 µM,18.7 µM,16.3 µM,,12.8 µM,38.2 µM,6.5 µM,24.4 µM
O=C(/C(=C/c1ccccc1)c1ccccc1)N1c2ccccc2CC1c1c[nH]c2ccccc12 (stereo not drawn),> 100 µM,> 100 µM,> 100 µM,> 100 µM,> 100 µM,> 100 µM,> 100 µM,> 100 µM,,,,,,,,,,> 100 µM,,
CC(C)(C)OC(=O)N1N=NC2C3OC(CC3=O)C21 (stereo not drawn),> 100 µM,> 100 µM,,> 100 µM,> 100 µM,> 100 µM,> 100 µM,> 100 µM,,,,,,,,,,> 100 µM,,
N#Cc1cccc(OCc2ccccc2COc2cccc(C#N)c2)c1,,93.3 µM,,> 100 µM,> 100 µM,> 100 µM,> 100 µM,43.4 µM,22 µM,98.1 µM,87 µM,55.9 µM,> 100 µM,19.4 µM,,,15 µM,59.1 µM,25.4 µM,> 100 µM
